Laboratory results from patent US12152016B2, “Aryl hydrocarbon receptor modulators and uses thereof” (Beth Israel Deaconess Medical Center, Inc., priority 2018, dated 2024).

Key:
[1] = tested on: AHR-dependent transcription of the CYP1A1 gene; test: CYP1A1 induction in mouse macrophages; assay type: cell-based
Procedure: Mouse macrophages were also used to test AHR-dependent transcription of the CYP1A1 gene in vivo. Finally, the activity of exemplary compounds of Formula (I) described herein was tested in the human […] cell line U937. The U937 cell line is derived from a patient with diffuse histiocytic lymphoma. Tables 2-4 summarize structure-activity relationship data collected for exemplary, non-limiting compounds of Formula (I) described herein.

[2] = biological target: T1, aryl hydrocarbon receptor (AHR) (Homo sapiens, UniProt P35869); test: XRE-driven luciferase reporter assay, human HepG2; settings: for XRE luciferase Emax (fold): fold over vehicle; for XRE luciferase Emax (footnote c): Emax defined as fold increase at highest concentration tested (10 μM)
T1 sequence (P35869 11-848): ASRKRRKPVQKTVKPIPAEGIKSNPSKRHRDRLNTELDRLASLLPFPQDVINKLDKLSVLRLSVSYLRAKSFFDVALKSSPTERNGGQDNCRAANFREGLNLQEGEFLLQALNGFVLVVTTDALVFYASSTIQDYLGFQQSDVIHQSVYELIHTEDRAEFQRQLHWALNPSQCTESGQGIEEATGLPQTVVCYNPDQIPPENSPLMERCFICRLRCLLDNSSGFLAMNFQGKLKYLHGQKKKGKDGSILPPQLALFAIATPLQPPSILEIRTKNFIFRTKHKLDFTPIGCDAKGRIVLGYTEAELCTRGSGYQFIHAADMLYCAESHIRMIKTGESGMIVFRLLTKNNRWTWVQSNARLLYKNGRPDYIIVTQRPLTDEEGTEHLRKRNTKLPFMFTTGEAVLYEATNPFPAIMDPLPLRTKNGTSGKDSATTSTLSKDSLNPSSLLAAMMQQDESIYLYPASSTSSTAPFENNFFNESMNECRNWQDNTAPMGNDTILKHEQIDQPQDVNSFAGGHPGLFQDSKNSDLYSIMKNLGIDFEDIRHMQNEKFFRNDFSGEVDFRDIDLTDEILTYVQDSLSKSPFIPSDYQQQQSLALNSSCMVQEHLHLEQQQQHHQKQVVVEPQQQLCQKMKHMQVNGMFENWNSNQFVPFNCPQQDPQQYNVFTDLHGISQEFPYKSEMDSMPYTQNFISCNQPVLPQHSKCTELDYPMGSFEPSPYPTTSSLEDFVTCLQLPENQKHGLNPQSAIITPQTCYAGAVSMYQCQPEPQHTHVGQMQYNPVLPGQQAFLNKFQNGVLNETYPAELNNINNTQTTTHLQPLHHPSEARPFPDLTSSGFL
Procedure: The Human HepG2 cell line is a human liver cancer cell line, and provide a relevant in vitro AHR activity model. These Hep2G cells have been modified to stably express an AHR-responsive (XRE) firefly luciferase reporter gene to give Hep2G-XRE cells. The expression of luciferase should primarily reflect AHR-dependent transcription controlled by XRE.
Transfected cells were treated with AhR agonist (10^−5-10^−12) for 4.5 h in full medium. Cells were lysed and luciferase was activated using the Luciferase Assay System (Promega). Luminescence signals were measured with a FluroStar Omega microplate reader. Luminescence signals of compound treated groups were normalized to vehicle (DMSO) treated control and plotted as concentration dependent fold changes.

[3] = XRE luciferase EC50, Human HepG2, least square curve fitting, >10,000 = does not reach 50% of Emax of ITE at 10 μM (highest concentration tested)

Row | Structure (SMILES) | CYP1A1 induction (% of ITE ± SEM) ([1]; 50 nM) | CYP1A1 induction (% of ITE ± SEM) ([1]; 5 μM) | XRE luciferase Emax (fold) ([2]; Human HepG2) | EC50 [2, 3] [nM] | XRE luciferase Emax (footnote c) ([2]; Human HepG2) | EC50 ([2]; XRE luciferase EC50 (footnote a), Human HepG2, EC50 defined as concentration induced 50% of Emax of ITE) [nM] | IC50 [2] [nM]
1 | CC(C)OC(=O)c1cccc(C(=O)c2c[nH]c3ccccc23)n1 [Compound 1] | 22 ± 11 % of ITE | 128 ± 11 % of ITE | 37 | 370 | – | – | –
2 | O=C(OC1CCCCC1)c1cccc(C(=O)c2c[nH]c3ccccc23)n1 [Compound 2] | 19 ± 4 % of ITE | 95 ± 7 % of ITE | 55 | 12000 | – | – | –
3 | O=C(O)c1cccc(C(=O)c2c[nH]c3ccccc23)n1 [Compound 3] | 27 ± 17 % of ITE | 97 ± 16 % of ITE | 47 | 640 | – | – | –
4 | CN(C)C(=O)c1cccc(C(=O)c2c[nH]c3ccccc23)n1 [Compound 4] | – | 2.5 ± 1.4 % of ITE | 23 | > 10000 | – | – | –
5 | O=C(c1cccc(Cl)n1)c1c[nH]c2ccccc12 [Compound 6] | 86 ± 47 % of ITE | – | – | – | (109)^c fold | 29 | –
6 | O=C(c1ccccc1)c1c[nH]c2ccccc12 [Compound 7] | – | 0.6 ± 0.2 % of ITE | – | – | – | – | –
7 | COC(=O)c1cccc(C(=O)c2c[nH]c3ccccc23)c1 [Compound 8] | 3 ± 1 % of ITE | – | – | > 10000 | (2.1)^c fold | – | –
8 | COC(=O)c1ccc(C(=O)c2c[nH]c3ccccc23)nc1 [Compound 11, methyl 6-(1H-indole-3-carbonyl)pyridine-3-carboxylate] | 2 ± 1 % of ITE | 26 ± 10 % of ITE | – | > 10000 | (2.3)^c fold | – | –
9 | CC(=O)Oc1cccc(C(=O)c2c[nH]c3ccccc23)c1 [Compound 12] | 5 ± 3 % of ITE | – | – | – | – | – | –
10 | COC(=O)c1cccc(C(=O)c2cn(C)c3ccccc23)n1 [Compound 13] | 29 ± 10 % of ITE | 50 ± 20 % of ITE | 55 | 190 | – | – | –
11 | COC(=O)c1cccc(C(=O)c2c[nH]c3cccc(Cl)c23)n1 [Compound 14] | 141 ± 83 % of ITE | – | – | > 10000 | (19)^c fold | – | –
12 | COC(=O)c1cccc(C(=O)c2c[nH]c3ccc(Cl)cc23)n1 [Compound 15] | 150 ± 36 % of ITE | 89 ± 44 % of ITE | 62 | 7.6 | – | – | –
13 | COC(=O)c1ccc(C(=O)c2c[nH]c3ccccc23)cc1 [Compound 25] | 20 ± 16 % of ITE | – | – | – | – | – | –
14 | COC(=O)c1ccccc1C(=O)c1c[nH]c2ccccc12 [Compound 26] | 10 ± 7 % of ITE | – | – | – | – | – | –
15 | COc1ccccc1C(=O)c1c[nH]c2ccccc12 [Compound 27] | 6 ± 1 % of ITE | – | – | – | – | – | –
16 | COc1ccc(C(=O)c2c[nH]c3ccccc23)cc1 [Compound 28] | 19 ± 8 % of ITE | – | – | – | – | – | –
17 | O=C(O)c1cccc(C(=O)c2c[nH]c3ccccc23)n1 [Compound 145, 6-(1H-indole-3-carbonyl)pyridine-2-carboxylic acid] | – | – | – | – | – | – | 640
